Test results: PubChem BioAssay (NCI)
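In this assay, cells in 96-well plates receive the compound at five concentrations for 48 hours. Endpoints are linearly interpolated between the surrounding concentrations. Abbreviation: GI50, concentration required for 50% inhibition of growth. TGI denotes the concentration required for complete inhibition of growth.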

Key:
Assay in all cases: DTP human tumour cell line panel, 48 h
BT-549 breast = system: BT-549 breast
HS 578T breast = system: HS 578T breast
K-562 leukemia = system: K-562 leukemia
M14 melanoma = system: M14 melanoma
MCF7 breast = system: MCF7 breast
MDA-MB-231 breast = system: MDA-MB-231 breast
NCI-H226 lung = system: NCI-H226 lung
NCI-H460 lung = system: NCI-H460 lung
OVCAR-8 ovarian = system: OVCAR-8 ovarian
SF-539 CNS = system: SF-539 CNS

SMILES | TGI (BT-549 breast) | TGI (HS 578T breast) | TGI (K-562 leukemia) | TGI (M14 melanoma) | TGI (MCF7 breast) | TGI (MDA-MB-231 breast) | TGI (NCI-H226 lung) | TGI (NCI-H460 lung) | TGI (OVCAR-8 ovarian) | TGI (SF-539 CNS) | GI50 (BT-549 breast) | GI50 (HS 578T breast) | GI50 (K-562 leukemia) | GI50 (M14 melanoma) | GI50 (MCF7 breast) | GI50 (MDA-MB-231 breast) | GI50 (NCI-H226 lung) | GI50 (NCI-H460 lung) | GI50 (OVCAR-8 ovarian) | GI50 (SF-539 CNS)
COc1cc2c(OC)c(c1)CCCC1=CC(=O)C=C(CCC2)C1=O | 92.3 µM | > 100 µM | 34.6 µM | > 64.5 µM | > 100 µM | > 66.4 µM | > 100 µM | > 100 µM | > 31.6 µM | > 69.4 µM |  |  |  |  |  |  |  |  |  | 
Cc1nc(NC(=S)Nc2ccc(F)cc2)sc1C(=O)NNC(=S)Nc1ccc(F)cc1 | 45.2 µM | 38 µM | > 100 µM | > 100 µM | 32.7 µM | 25.1 µM | 57.8 µM | 16.2 µM | > 100 µM | 26.2 µM | 14.9 µM | 11.4 µM | 3.91 µM | 20.2 µM | 3.72 µM | 10.4 µM | 14.1 µM | 3.85 µM | 16 µM | 13 µM
C=C1C(=O)O[C@@H]2C[C@@H](C)[C@@H]3[C@@H](OC4OC(COC(C)=O)C(O)C(O)C4O)CC(=O)[C@@]3(C)C[C@H]12 (stereo not given in full) | 3.13 µM | > 100 µM | 3.78 µM | 2.85 µM | 2.19 µM | 8.92 µM | 26.1 µM | 28.7 µM | 3.7 µM | 6.27 µM |  |  |  |  |  |  |  |  |  | 
COc1cc(-c2cc(-c3nc4ccccc4[nH]3)[nH]n2)cc(OC)c1OC | 8.11 µM | > 100 µM | > 100 µM | 11.6 µM | 10.3 µM | 15.8 µM | 7.26 µM | 21.5 µM | 7.74 µM | 18.9 µM | 1.8 µM | 6.89 µM | 3.08 µM | 2.57 µM | 2.79 µM | 3.22 µM | 1.14 µM | 3.64 µM | 2.35 µM | 5.11 µM
Cc1nn2c(/C=C3/C(=O)Nc4ccccc43)c(-c3ccc(Cl)cc3)nc2s1 | > 50 µM | > 50 µM | > 50 µM | 36.4 µM | > 50 µM | 21.3 µM | 27.5 µM | > 50 µM | > 50 µM | 1.27 µM | 10.7 µM | 27.7 µM | > 50 µM | 11.5 µM | 17.1 µM | 7.05 µM | 10.1 µM | 22.1 µM | 31.9 µM | 0.0174 µM
Cc1ccc(C(=O)N/N=C/c2cccc(Oc3ccccc3)c2)cn1 | > 55.6 µM | > 100 µM | > 100 µM | > 100 µM | > 100 µM | > 100 µM | > 100 µM | > 100 µM | > 100 µM | > 59.1 µM | 5.37 µM | 6.74 µM | 1.81 µM | 6.08 µM | 3.48 µM | 22.9 µM | > 64.5 µM | 4.05 µM | 15.8 µM | 10.6 µM
CN(C)CC#Cc1cccc(C(=O)c2cnn(-c3ccc(F)cc3)c2N)c1 | > 25 µM | > 25 µM | > 25 µM | > 25 µM | > 25 µM | > 25 µM | > 25 µM | > 25 µM | > 25 µM | > 25 µM | > 25 µM | > 19.1 µM | > 17.8 µM | > 25 µM | > 25 µM | > 25 µM | > 21.9 µM | > 25 µM | > 25 µM | > 25 µM
CO/N=C1/NC(=O)/C(=C/c2ccc3ncccc3c2)S1 | > 25 µM | 17.5 µM | > 25 µM | > 25 µM | > 25 µM | > 25 µM | > 25 µM | > 25 µM | > 25 µM | > 25 µM | 9.1 µM | 4.06 µM | > 25 µM | 9.85 µM | 4.45 µM | > 25 µM | 6.5 µM | 9.08 µM | > 22.6 µM | 8.27 µM
CN(/N=N/c1nc(OCc2ccccc2)c2[nH]cnc2n1)C(=O)N(C)/N=N/c1nc(OCc2ccccc2)c2[nH]cnc2n1 | > 100 µM | 85.3 µM | > 100 µM | > 100 µM | > 100 µM | > 100 µM | > 100 µM | > 100 µM | > 100 µM | > 100 µM | 36.6 µM | 25.5 µM | 75.8 µM | 71.2 µM | 43 µM | 41.2 µM | 38.5 µM | 26.1 µM | 51 µM | 38.4 µM
O=C(Nc1cc(Cl)ccc1O)c1cccc(NC2=C(Cl)C(=O)N(Cc3ccccc3)C2=O)c1 | 80.5 µM | 49.9 µM | 38.5 µM | 36.7 µM | 36.9 µM | 40.3 µM | 36.6 µM | 40.9 µM | 38.8 µM | 58.9 µM | 26.7 µM | 20.9 µM | 15.2 µM | 17.8 µM | 13.3 µM | 16.8 µM | 17.4 µM | 18.6 µM | 14.5 µM | 27.2 µM
